According to patent publication US10774102B2, “Galactoside inhibitor of galectins” (Galecto Biotech AB, priority 2015, dated 2020):

target: galectin-3 (Homo sapiens (Human), UniProt P17931); assay: Fluorescence anisotropy assay of galectin-3 affinity (compound inhibits galectin binding to a fluorescein tagged saccharide probe); settings: high affinity probe, 50 nM galectin-3, 100 nM albumin
Method: 100 nM albumin was included as a carrier to prevent protein loss at such low concentration of galectin.

Sequence of galectin-3 (P17931 whole entry): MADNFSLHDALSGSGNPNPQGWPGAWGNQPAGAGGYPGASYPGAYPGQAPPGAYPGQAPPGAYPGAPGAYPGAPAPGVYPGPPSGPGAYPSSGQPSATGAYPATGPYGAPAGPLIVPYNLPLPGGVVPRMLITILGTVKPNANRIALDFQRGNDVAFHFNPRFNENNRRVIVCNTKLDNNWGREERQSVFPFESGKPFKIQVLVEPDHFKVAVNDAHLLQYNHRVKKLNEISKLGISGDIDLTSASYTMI

Kd [µM]	Compound
3.5	CCOC(=O)c1cn([C@@H]2[C@@H](O)[C@@H](Sc3ccc(Cl)c(Cl)c3)O[C@H](CO)[C@@H]2O)nn1 [Example 97, 3,4-Dichlorophenyl 3-deoxy-3-[4-(ethoxycarbonyl)-1H-1,2,3-triazol-1-yl]-1-thio-α-D-galactopyranoside]
0.08	OC[C@H]1O[C@H](Sc2cc(Cl)cc(Cl)c2)[C@H](O)[C@@H](n2cc(-c3cc(F)c(F)c(F)c3)nn2)[C@H]1O [Example 16, 3,5-Dichlorophenyl 3-deoxy-3-[4-(3,4,5-trifluorophenyl)-1H-1,2,3-triazol-1-yl]-1-thio-α-D-galactopyranoside]
1.58	Cc1cccc(C)c1S[C@H]1O[C@H](CO)[C@H](O)[C@H](n2cc(-c3cc(F)c(F)c(F)c3)nn2)[C@H]1O [Example 17, 2,6-Dimethylphenyl 3-deoxy-3-[4-(3,4,5-trifluorophenyl)-1H-1,2,3-triazol-1-yl]-1-thio-α-D-galactopyranoside]
0.49	OC[C@H]1O[C@H](Sc2cccc(O)c2)[C@H](O)[C@@H](n2cc(-c3cc(F)c(F)c(F)c3)nn2)[C@H]1O [Example 38, 3-Hydroxy-phenyl 3-deoxy-3-[4-(3,4,5-trifluorophenyl)-1H-1,2,3-triazol-1-yl]-1-thio-α-D-galactopyranoside]
0.031	O=S(=O)(c1cncc(Br)c1)[C@H]1O[C@H](CO)[C@H](O)[C@H](n2cc(-c3cc(F)c(F)c(F)c3)nn2)[C@H]1O [Example 92, 5-Bromopyridin-3-yl 3-deoxy-3-[4-(3,4,5-trifluorophenyl)-1H-1,2,3-triazol-1-yl]-α-D-galactopyranosyl sulfone]
0.062	O=S(=O)(c1ccc(Cl)c(Cl)c1)[C@H]1O[C@H](CO)[C@H](O)[C@H](n2cc(-c3cc(F)c(F)c(F)c3)nn2)[C@H]1O [Example 25, 3,4-Dichlorophenyl 3-deoxy-3-[4-(3,4,5-trifluorophenyl)-1H-1,2,3-triazol-1-yl]-α-D-galactopyranosyl sulfone]
0.49	OC[C@H]1O[C@H](Oc2ccc(Cl)c(Cl)c2)[C@H](O)[C@@H](n2cc(-c3cc(F)c(F)c(F)c3)nn2)[C@H]1O [Example 22, 3,4-Dichlorophenyl 3-deoxy-3-[4-(3,4,5-trifluorophenyl)-1H-1,2,3-triazol-1-yl]-α-D-galactopyranoside]
0.01	[O-][S+](c1ccc(Cl)c(Cl)c1)[C@H]1O[C@H](CO)[C@H](O)[C@H](n2cc(-c3cc(F)c(F)c(F)c3)nn2)[C@H]1O (stereo partly drawn) [Example 24, 3,4-Dichlorophenyl 3-deoxy-3-[4-(3,4,5-trifluorophenyl)-1H-1,2,3-triazol-1-yl]-α-D-galactopyranosyl sulfoxide]
0.048	OC[C@H]1O[C@H](Sc2ccc(F)c(Cl)c2)[C@H](O)[C@@H](n2cc(-c3cc(F)c(F)c(F)c3)nn2)[C@H]1O [Example 28, 3-Chloro-4-fluorophenyl 3-deoxy-3-[4-(3,4,5-trifluorophenyl)-1H-1,2,3-triazol-1-yl]-1-thio-α-D-galactopyranoside]
0.28	OC[C@H]1O[C@H](Sc2ccc(OC(F)(F)F)cc2)[C@H](O)[C@@H](n2cc(-c3cc(F)c(F)c(F)c3)nn2)[C@H]1O [Example 31, 4-Trifluoromethoxyphenyl 3-deoxy-3-[4-(3,4,5-trifluorophenyl)-1H-1,2,3-triazol-1-yl]-1-thio-α-D-galactopyranoside]
0.084	OC[C@H]1O[C@H](Sc2cc(Cl)ccc2Cl)[C@H](O)[C@@H](n2cc(-c3cc(F)c(F)c(F)c3)nn2)[C@H]1O [Example 37, 2,5-Dichlorophenyl 3-deoxy-3-[4-(3,4,5-trifluorophenyl)-1H-1,2,3-triazol-1-yl]-1-thio-α-D-galactopyranoside]
0.4	OC[C@H]1O[C@H](Sc2ccccc2)[C@H](O)[C@@H](n2cc(-c3cc(F)c(F)c(F)c3)nn2)[C@H]1O [Example 27, Phenyl 3-deoxy-3-[4-(3,4,5-trifluorophenyl)-1H-1,2,3-triazol-1-yl]-1-thio-α-D-galactopyranoside]
0.44	OC[C@H]1O[C@H](SC2CCCCC2)[C@H](O)[C@@H](n2cc(-c3cc(F)c(F)c(F)c3)nn2)[C@H]1O [Example 35, Cyclohexyl 3-deoxy-3-[4-(3,4,5-trifluorophenyl)-1H-1,2,3-triazol-1-yl]-1-thio-α-D-galactopyranoside]
1	OC[C@H]1O[C@H](Oc2ccccc2)[C@H](O)[C@@H](n2cc(-c3cc(F)c(F)c(F)c3)nn2)[C@H]1O [Example 32, Phenyl 3-deoxy-3-[4-(3,4,5-trifluorophenyl)-1H-1,2,3-triazol-1-yl]-α-D-galactopyranoside]
0.65	OC[C@H]1O[C@H](Sc2ccc(Cl)cc2Cl)[C@H](O)[C@@H](n2cc(-c3cc(F)c(F)c(F)c3)nn2)[C@H]1O [Example 5, 2,4-Dichlorophenyl 3-deoxy-3-[4-(3,4,5-trifluorophenyl)-1H-1,2,3-triazol-1-yl]-1-thio-α-D-galactopyranoside]
0.037	OC[C@H]1O[C@H](Sc2cccc(Br)c2)[C@H](O)[C@@H](n2cc(-c3cc(F)c(F)c(F)c3)nn2)[C@H]1O [Example 2, 3-Bromophenyl 3-deoxy-3-[4-(3,4,5-trifluorophenyl)-1H-1,2,3-triazol-1-yl]-1-thio-α-D-galactopyranoside]
0.92	O=c1oc2ccc(F)c(F)c2cc1CO[C@@H]1[C@@H](O)[C@@H](Sc2ccc(Cl)c(Cl)c2)O[C@H](CO)[C@@H]1O [Example 99, 3,4-Dichlorophenyl 3-O-[(5,6-Difluoro-2-oxo-3-chromenyl)methyl]-1-thio-α-D-galactopyranoside]
0.15	Cc1ccc(S[C@H]2O[C@H](CO)[C@H](O)[C@H](n3cc(-c4cc(F)c(F)c(F)c4)nn3)[C@H]2O)cc1C [Example 1, 3,4-Dimethylphenyl 3-deoxy-3-[4-(3,4,5-trifluorophenyl)-1H-1,2,3-triazol-1-yl]-1-thio-α-D-galactopyranoside]
0.19	OC[C@H]1O[C@H](Sc2ccncc2)[C@H](O)[C@@H](n2cc(-c3cc(F)c(F)c(F)c3)nn2)[C@H]1O [Example 4, 4-Pyridyl 3-deoxy-3-[4-(3,4,5-trifluorophenyl)-1H-1,2,3-triazol-1-yl]-1-thio-α-D-galactopyranoside]
0.24	Cc1cccc(S[C@H]2O[C@H](CO)[C@H](O)[C@H](n3cc(-c4cc(F)c(F)c(F)c4)nn3)[C@H]2O)c1 [Example 13, 3-Methylphenyl 3-deoxy-3-[4-(3,4,5-trifluorophenyl)-1H-1,2,3-triazol-1-yl]-1-thio-α-D-galactopyranoside]

Compound	Kd [µM]
[O-][S+](c1cncc(Br)c1)[C@H]1O[C@H](CO)[C@H](O)[C@H](n2cc(-c3cc(F)c(F)c(F)c3)nn2)[C@H]1O (single isomer, unassigned; isomer 2) [Example 91, 5-Bromopyridin-3-yl 3-deoxy-3-[4-(3,4,5-trifluorophenyl)-1H-1,2,3-triazol-1-yl]-α-D-galactopyranosyl sulfoxide, isomer 2]	0.13

tested on: not listed separately; assay: Pharmacokinetic studies in mice; settings: mouse, in vivo, 10 mg/kg, oral, read-out: Bioavailability (F)
Excerpt: This is exemplified by Example 9 3,4-Dichlorophenyl 3-deoxy-3-[4-(3,4,5-trifluorophenyl)-1H-1,2,3-triazol-1-yl]-1-thio-α-D-galactopyranoside in the table below.

bioavailability [%]	Compound
75	OC[C@H]1O[C@H](Sc2ccc(Cl)c(Cl)c2)[C@H](O)[C@@H](n2cc(-c3cc(F)c(F)c(F)c3)nn2)[C@H]1O [Example 9, 3,4-Dichlorophenyl 3-deoxy-3-[4-(3,4,5-trifluorophenyl)-1H-1,2,3-triazol-1-yl]-1-thio-α-D-galactopyranoside]

same assay, conditions: mouse, in vivo, po, 10 mg/kg

Cmax [µM]	Compound
16	OC[C@H]1O[C@H](Sc2ccc(Cl)c(Cl)c2)[C@H](O)[C@@H](n2cc(-c3cc(F)c(F)c(F)c3)nn2)[C@H]1O [Example 9, 3,4-Dichlorophenyl 3-deoxy-3-[4-(3,4,5-trifluorophenyl)-1H-1,2,3-triazol-1-yl]-1-thio-α-D-galactopyranoside]

same assay, conditions: mouse, in vivo, read-out: Clearance (CL)

clearance [mL/min/kg]	Compound
1.2	OC[C@H]1O[C@H](Sc2ccc(Cl)c(Cl)c2)[C@H](O)[C@@H](n2cc(-c3cc(F)c(F)c(F)c3)nn2)[C@H]1O [Example 9, 3,4-Dichlorophenyl 3-deoxy-3-[4-(3,4,5-trifluorophenyl)-1H-1,2,3-triazol-1-yl]-1-thio-α-D-galactopyranoside]

same assay, conditions: mouse, in vivo, read-out: Halflife (t½) (converted)

half-life [h]	Compound
4.5	OC[C@H]1O[C@H](Sc2ccc(Cl)c(Cl)c2)[C@H](O)[C@@H](n2cc(-c3cc(F)c(F)c(F)c3)nn2)[C@H]1O [Example 9, 3,4-Dichlorophenyl 3-deoxy-3-[4-(3,4,5-trifluorophenyl)-1H-1,2,3-triazol-1-yl]-1-thio-α-D-galactopyranoside]

target: galectins; assay: not given; settings: all galectins; cited from earlier work

Compound	Kd [µM]
OC[C@H]1O[C@@H](O[C@H]2[C@H](O)[C@@H](O)C(O)O[C@@H]2CO)[C@H](O)[C@@H](O)[C@H]1O (stereo partly drawn) [lactose]	500 to 1000

same assay, conditions: galectins; compared with lactose; cited from earlier work

Compound	affinity relative to lactose (times lower)
O=C[C@H](O)[C@@H](O)[C@@H](O)[C@H](O)CO [D-galactose, D-(+)-galactose]	50-100 times lower
